The record followed here is publication PMC11785791, “Cryo-EM structure of the calcium-sensing receptor complexed with the kokumi substance γ-glutamyl-valyl-glycine” (Scientific Reports, 2025).

Where a chain is given by its changes, count along the chain named. *1 amine or outer side, *2 acyl side, *3 side chain or, on linkers, in order; H or OH if unused. Where a SMILES comes first, the peptide text is derived from it. γGlu = O=C(O)[CH](CCC(=O)[*:2])N[*:1]

One assay concerns the target T1, human CaSR (wild type) (Homo sapiens, UniProt P41180).
T1 construct: expressed in transfected cells; host or cells: PEAKrapid cells (ATCC), pcDNA 3.1, transient transfection
T1 sequence (P41180 20-1078): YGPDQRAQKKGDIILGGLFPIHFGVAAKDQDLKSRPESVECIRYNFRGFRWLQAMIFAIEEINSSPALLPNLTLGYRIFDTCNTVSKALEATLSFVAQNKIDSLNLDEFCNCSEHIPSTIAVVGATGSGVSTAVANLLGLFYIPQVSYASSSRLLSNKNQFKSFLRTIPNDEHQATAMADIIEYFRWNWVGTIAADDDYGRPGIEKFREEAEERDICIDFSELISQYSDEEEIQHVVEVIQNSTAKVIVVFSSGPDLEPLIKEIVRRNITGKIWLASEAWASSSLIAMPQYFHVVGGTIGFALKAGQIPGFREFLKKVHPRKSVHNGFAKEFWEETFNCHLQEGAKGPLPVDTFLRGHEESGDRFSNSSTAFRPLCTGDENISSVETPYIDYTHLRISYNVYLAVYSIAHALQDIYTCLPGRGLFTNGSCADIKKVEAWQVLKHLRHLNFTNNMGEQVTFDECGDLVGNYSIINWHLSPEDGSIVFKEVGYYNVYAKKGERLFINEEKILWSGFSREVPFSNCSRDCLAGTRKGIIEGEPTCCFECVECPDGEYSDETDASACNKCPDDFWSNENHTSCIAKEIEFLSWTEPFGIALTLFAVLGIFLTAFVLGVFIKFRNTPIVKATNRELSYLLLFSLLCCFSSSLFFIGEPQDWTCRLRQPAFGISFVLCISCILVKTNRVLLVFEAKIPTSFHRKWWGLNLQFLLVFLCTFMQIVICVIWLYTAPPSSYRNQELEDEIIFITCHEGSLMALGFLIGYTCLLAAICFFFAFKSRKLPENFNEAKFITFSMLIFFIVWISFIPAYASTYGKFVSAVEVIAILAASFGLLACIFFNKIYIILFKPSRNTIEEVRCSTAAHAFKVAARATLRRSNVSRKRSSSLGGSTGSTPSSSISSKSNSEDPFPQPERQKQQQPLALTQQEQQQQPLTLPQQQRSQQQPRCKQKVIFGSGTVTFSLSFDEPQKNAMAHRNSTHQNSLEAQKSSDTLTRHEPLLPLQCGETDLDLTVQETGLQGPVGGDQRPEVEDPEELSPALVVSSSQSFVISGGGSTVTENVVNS
The assay is described as follows: Calcium mobilization assay, wild-type CaSR in PEAKrapid cells. The format is cell-based. The note with it: WT CaSR; for EC50: PEAKrapid cells, 1 mM CaCl2 in assay buffer, mean ± s.e.m., n = 3; for Response in calcium mobilization assay: in words. As to the method:
(§1) The CaSR receptor responsiveness was assessed by using PEAK^rapid cells (ATCC, Manassas, VA, USA) transiently transfected with the receptor DNA by the method reported by Kitajima et al.[6]. Briefly, human CaSR or its mutant cDNA with a signal sequence (MAFYSCCWVLLALTWHTSA) followed by FLAG-tag (DYKDDDDK) were inserted into pcDNA 3.1 expression vectors in Opti-MEM I medium (Thermo Fisher Scientific), mixed with FuGENE 6 (Roche), and poured onto PEAK^rapid cells grown at a submaximal concentration. After culturing for 24 h in 96-well plates, the cells were incubated with 5 µM Calcium-5 solution (Calcium-5 assay kit, Molecular Devices) for 45–60 min, and measurements were performed using a plate reader (FDSS/µCELL, Hamamatsu Photonics, Shizuoka, Japan) and its associated software. The activation of CaSR expressed in cells increases the intracellular Ca^2+ concentration, which is measured using a Ca^2+-sensitive dye. The binding of Ca^2+ to the Ca^2+-sensitive dye increases dye fluorescence, with excitation at 485 nm and emission at 525 nm. Test compounds were dissolved and administered in the assay buffer (146 mM NaCl, 1 mM MgSO4, 20 mM HEPES, 1 mM CaCl2, 2.5 mM probenecid, and 1.39 mM glucose, pH 7.4). Transiently transfected cells were challenged with compounds and compared with the vehicle alone and/or mock-transfected cells. The concentration dependence of the fluorescence intensity (influx of Ca^2+) was analyzed using the plate reader at 1 s intervals for 180 s. For the dose–response curve calculations, peak fluorescence responses after the addition of compounds were corrected for, normalized to the background fluorescence (ΔF/F = –F − F0)/F0), and baseline noise was subtracted. Dose–response curves were calculated by non-linear regression using GraphPad PRISM 8.0.
Background: Calcium flux is commonly read through the fluorescence of an indicator in the cells.

In the next assay the target is T2, human CaSR R66A mutant (Homo sapiens, UniProt P41180, R66A).
T2 construct: (N); expressed in transfected cells; host or cells: PEAKrapid cells (ATCC), pcDNA 3.1, transient transfection
T2 sequence (P41180 20-1078 R66A): T1 sequence (P41180 20-1078) with R47A
The assay is described as follows: Calcium mobilization assay, CaSR R66A mutant. The settings on record: for EC50: mean ± s.e.m., n = 3; for Response in calcium mobilization assay: in words. It is filed as cell-based. As for the experimental part: as §1

Take `[Ca+2].[Cl-].[Cl-]` [CaCl2]: the half-maximal effective concentration (EC50) (in general, the concentration giving half of the maximal effect) on human CaSR (wild type) was 190 ± 400 µM. In addition, on human CaSR R66A mutant (R66A mutant), the “Emax (% of wild-type values)” value is on record as 107.2 % of WT and the 50% effective concentration (EC50) was 3870 ± 500 µM.
Regarding `N[C@@H](Cc1ccc(O)cc1)C(=O)O` [L-Tyr, L-tyrosine], at human CaSR (wild type), the concentration giving a half-maximal response (EC50) came out at 3900 ± 1100 µM and the “Response in calcium mobilization assay” value was “weak response”. Also, on human CaSR R66A mutant (R66A mutant), the “Response in calcium mobilization assay” value is “no response”.
For `CC(C)[C@H](NC(=O)CC[C@H](N)C(=O)O)C(=O)O` [γ-EV, γ-glutamyl-valine], in that order: 10.71 ± 0.1 µM, “weak response” and “no response”.
In the case of `CC(C)C(NC(=O)CCC(N)C(=O)O)C(=O)NCC(=O)O` (stereo not drawn) [γ-EVG, γ-glutamyl-valyl-glycine] (γGlu-Val-Gly-OH; configuration not given here), the 50% effective concentration (EC50) at human CaSR (wild type) was 0.18 ± 0.1 µM; on human CaSR R66A mutant (R66A mutant, ND not detected) it was 18.9 ± 0.5 µM. In addition, on human CaSR R66A mutant (R66A mutant), the “Response in calcium mobilization assay” value is listed as “reduced its function compared to the wild-type”. In addition, at human CaSR R66A mutant (read-out: Emax (% of wild-type values)), the maximal effect (Emax) (usually the greatest response seen or fitted, relative to the assay's reference) came out at 53.6%.
